Data published in patent publication US7265120B2, “Pyrazine derivatives and pharmaceutical use thereof” (Astellas Pharma Inc., priority 2004, dated 2007).

Assays:
human A1 receptor = target: T1, human A1 receptor (Homo sapiens, UniProt P30542); test: Adenosine antagonistic activity, radioligand binding ([3H]DPCPX); conditions: [3H]DPCPX 4.5 nM
T1 sequence (P30542 1-326): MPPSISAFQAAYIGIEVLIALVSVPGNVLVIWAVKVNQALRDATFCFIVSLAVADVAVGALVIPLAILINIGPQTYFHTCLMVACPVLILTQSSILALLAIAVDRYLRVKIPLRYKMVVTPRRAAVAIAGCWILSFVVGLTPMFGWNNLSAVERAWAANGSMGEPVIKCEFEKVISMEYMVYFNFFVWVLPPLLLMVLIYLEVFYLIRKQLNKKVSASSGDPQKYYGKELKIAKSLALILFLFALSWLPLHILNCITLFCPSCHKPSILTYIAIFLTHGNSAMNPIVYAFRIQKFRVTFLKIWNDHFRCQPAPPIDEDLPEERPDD
Description: (§1) Test 1: Adenosine Antagonistic Activity
(§2) The adenosine antagonistic activity [Ki (nM)] of the test compound was examined by radioligand binding techniques using 8-cyclopentyl-1,3-dipropylxanthine, [dipropyl-2,3-^3H(N)] ([^3H]DPCPX, 4.5 nM) for human A1 receptor and [^3H]CGS 21680 (20 nM) for human A2a receptor.

human A2a receptor = human A2a receptor (Homo sapiens, UniProt P29274); test: Adenosine antagonistic activity, radioligand binding ([3H]CGS 21680); conditions: [3H]CGS 21680 20 nM
Description: as §1, §2

ddY mice = test: Anticatalepsy activity in mouse (haloperidol-induced catalepsy, bar test); type: in vivo; conditions: 3.2 mg/kg orally, ddY mice n=7; haloperidol 0.32 mg/kg i.p. 30 min after compound; measured 30 min after injection, up to 30 sec
Description: Test 2: Anticatalepsy Activity in Mouse [I] Test Method
The test compound (3.2 mg/kg) was administered orally with ddY mice (n=7). Then, haloperidol (0.32 mg/kg) was injected intraperitoneally 30 min. after the administration of the compound. Thirty min. after the injection, the cataleptic responses of mice were measured. The forelimbs of each mouse were placed on a 3 cm high, 3 mm wide horizontal bar, and the duration of cataleptic posture was measured for up to 30 sec.

human A2a receptor, sequence (P29274 whole entry): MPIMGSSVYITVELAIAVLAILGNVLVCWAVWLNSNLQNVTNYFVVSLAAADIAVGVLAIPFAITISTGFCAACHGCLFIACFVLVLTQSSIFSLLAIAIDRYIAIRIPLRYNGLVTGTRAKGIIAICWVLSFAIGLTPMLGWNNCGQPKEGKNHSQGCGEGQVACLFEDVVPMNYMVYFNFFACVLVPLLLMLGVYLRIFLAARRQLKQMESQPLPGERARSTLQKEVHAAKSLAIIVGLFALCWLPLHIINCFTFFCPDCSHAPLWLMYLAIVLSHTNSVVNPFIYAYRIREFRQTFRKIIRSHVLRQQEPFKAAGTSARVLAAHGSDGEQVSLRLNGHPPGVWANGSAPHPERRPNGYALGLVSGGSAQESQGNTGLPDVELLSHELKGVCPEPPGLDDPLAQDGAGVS

SMILES | melting point | further results
Cn1nc(-c2nc(C#N)c(N)nc2-c2ccccc2)ccc1=O [Example 17, 3-Amino-6-(1-methyl-6-oxo-1,6-dihydro-3-pyridazinyl)-5-phenyl-2-pyrazinecarbonitrile] | > 250 °C | Ki (human A1 receptor): 11.2 nM; Ki (human A2a receptor): 1.72 nM; Manifestation rate of Catalepsy (number of mouse) (ddY mice): 0/7
CC(C)n1nc(-c2ncc(N)nc2-c2ccc(F)cc2)ccc1=O [Example 36, 6-[5-Amino-3-(4-fluorophenyl)-2-pyrazinyl]-2-isopropyl-3(2H)-pyridazinone] |  | Ki (human A1 receptor): 23 nM; Ki (human A2a receptor): 6.89 nM; Manifestation rate of Catalepsy (number of mouse) (ddY mice): 0/7
CC(C)n1nc(-c2nc(Cl)c(N)nc2-c2ccc(F)cc2)ccc1=O [Example 37, 6-[5-Amino-6-chloro-3-(4-fluorophenyl)-2-pyrazinyl]-2-isopropyl-3(2H)-pyridazinone] |  | Ki (human A1 receptor): 15.9 nM; Ki (human A2a receptor): 2.65 nM; Manifestation rate of Catalepsy (number of mouse) (ddY mice): 0/7
CC(C)n1nc(-c2nc(Br)c(N=S(C)C)nc2-c2ccccc2)ccc1=O [Example 66, 6-{6-bromo-5-[(dimethyl-lambda˜4˜-sulfanylidene)amino]-3-phenyl-2-pyrazinyl}-2-isopropyl-3(2H)-pyridazinone] | 220 to 224 °C | Ki (human A1 receptor): 16 nM; Ki (human A2a receptor): 6.79 nM; Manifestation rate of Catalepsy (number of mouse) (ddY mice): 1/7
CC(C)n1nc(-c2nc(OCCCCOCc3ccccc3)c(N)nc2-c2ccccc2)ccc1=O [Example 169, 6-{5-amino-6-[4-(benzyloxy)butoxy]-3-phenyl-2-pyrazinyl}-2-isopropyl-3(2H)-pyridazinone] | 96.5 to 97.5 °C | 
CC(C)n1nc(-c2nc(OCCN(C)C)c(N)nc2-c2ccccc2)ccc1=O [Example 170, 6-{5-amino-6-[2-(dimethylamino)ethoxy]-3-phenyl-2-pyrazinyl}-2-isopropyl-3(2H)-pyridazinone] | 136 to 137.5 °C | 
CC(C)n1nc(-c2nc(OCC(F)(F)F)c(N)nc2-c2ccccc2)ccc1=O [Example 171, 6-[5-amino-3-phenyl-6-(2,2,2-trifluoroethoxy)-2-pyrazinyl]-2-isopropyl-3(2H)-pyridazinone] | 233 to 235 °C | 
CC(C)n1nc(-c2nc(OCCN3CCOCC3)c(N)nc2-c2ccccc2)ccc1=O [Example 172, 6-{5-amino-6-[2-(4-morpholinyl)ethoxy]-3-phenyl-2-pyrazinyl}-2-isopropyl-3(2H)-pyridazinone] | 139 to 143 °C | 
CC(C)n1nc(-c2[nH]c(=O)c(N)nc2-c2ccccc2)ccc1=O [Example 174, 6-(5-amino-6-oxo-3-phenyl-1,6-dihydro-2-pyrazinyl)-2-isopropyl-3(2H)-pyridazinone] | > 250 °C | 
CC(C)n1nc(-c2nc(OCCc3ccccc3)c(N)nc2-c2ccccc2)ccc1=O [Example 174, 6-[5-amino-3-phenyl-6-(2-phenylethoxy)-2-pyrazinyl]-2-isopropyl-3(2H)-pyridazinone] | 173 to 176 °C | 
CC(C)n1nc(-c2nc(OCCCc3ccccc3)c(N)nc2-c2ccccc2)ccc1=O [Example 175, 6-[5-amino-3-phenyl-6-(3-phenylpropoxy)-2-pyrazinyl]-2-isopropyl-3(2H)-pyridazinone] | 105 to 106.5 °C | 
CC(C)n1nc(-c2nc(OC3CCN(Cc4ccccc4)C3)c(N)nc2-c2ccccc2)ccc1=O (stereo not drawn) [Example 176, 6-{5-amino-6-[(1-benzyl-3-pyrrolidinyl)oxy]-3-phenyl-2-pyrazinyl}-2-isopropyl-3(2H)-pyridazinone] | 179 to 181 °C | 
CC(C)n1nc(-c2nc(OC3CCN(Cc4ccccc4)CC3)c(N)nc2-c2ccccc2)ccc1=O [Example 178, 6-{5-amino-6-[(1-benzyl-4-piperidinyl)oxy]-3-phenyl-2-pyrazinyl}-2-isopropyl-3(2H)-pyridazinone] | 148 to 150.5 °C | 
COCCOc1nc(-c2ccc(=O)n(C)n2)c(-c2ccccc2)nc1N [Example 180, 6-[5-amino-6-(2-methoxyethoxy)-3-phenyl-2-pyrazinyl]-2-methyl-3(2H)-pyridazinone] | 139 to 141 °C | 
Cn1nc(-c2nc(OCCN3CCOCC3)c(N)nc2-c2ccccc2)ccc1=O [Example 181, 6-{5-amino-6-[2-(4-morpholinyl)ethoxy]-3-phenyl-2-pyrazinyl}-2-methyl-3(2H)-pyridazinone] | 185 to 187 °C | 
Cn1nc(-c2nc(OCc3ccccc3)c(N)nc2-c2ccccc2)ccc1=O [Example 182, 6-[5-amino-6-(benzyloxy)-3-phenyl-2-pyrazinyl]-2-methyl-3(2H)-pyridazinone] | 185 to 187 °C | 

SMILES | melting point | further results
Cn1nc(-c2nc(OCCCc3ccccc3)c(N)nc2-c2ccccc2)ccc1=O [Example 183, 6-[5-amino-3-phenyl-6-(3-phenylpropoxy)-2-pyrazinyl]-2-methyl-3(2H)-pyridazinone] | 91 to 94 °C | 
Cn1nc(-c2nc(OC3CCN(Cc4ccccc4)CC3)c(N)nc2-c2ccccc2)ccc1=O [Example 185, 6-{5-amino-6-[(1-benzyl-4-piperidinyl)oxy]-3-phenyl-2-pyrazinyl}-2-methyl-3(2H)-pyridazinone] | 147 to 149 °C | 
Cn1nc(-c2nc(Oc3ccc(F)cc3)c(N)nc2-c2ccccc2)ccc1=O [Example 186, 6-[5-amino-6-(4-fluorophenoxy)-3-phenyl-2-pyrazinyl]-2-methyl-3(2H)-pyridazinone] | 229 to 231 °C | 
Cn1nc(-c2nc(O)c(N)nc2-c2ccccc2)ccc1=O [Example 187, 6-(5-amino-6-hydroxy-3-phenyl-2-pyrazinyl)-2-methyl-3(2H)-pyridazinone] | > 250 °C | 
Cn1nc(-c2nc(OCCc3ccccc3)c(N)nc2-c2ccccc2)ccc1=O [Example 187, 6-[5-amino-3-phenyl-6-(2-phenylethoxy)-2-pyrazinyl]-2-methyl-3(2H)-pyridazinone] | 156 to 159 °C | 
CC(C)n1nc(-c2nc(C#N)c(N)nc2-c2ccccc2Br)ccc1=O [Example 188, 3-amino-5-(2-bromophenyl)-6-(1-isopropyl-6-oxo-1,6-dihydro-3-pyridazinyl)-2-pyrazinecarbonitrile] | 240 to 243 °C | 
CC(C)n1nc(-c2nc(C#N)c(N=CN(C)C)nc2-c2ccccc2Br)ccc1=O [Example 188, N′-[6-(2-bromophenyl)-3-cyano-5-(1-isopropyl-6-oxo-1,6-dihydro-3-pyridazinyl)-2-pyrazinyl]-N,N-dimethylimidoformamide] | 197 to 199 °C | 
CC(C)n1nc(-c2nc(C(N)=O)c(N)nc2-c2ccccc2Br)ccc1=O [Example 190, 3-amino-5-(2-bromophenyl)-6-(1-isopropyl-6-oxo-1,6-dihydro-3-pyridazinyl)-2-pyrazinecarboxamide] | 132 to 135 °C | 
CC(C)n1nc(-c2nc(C(N)=O)c(N)nc2-c2cccs2)ccc1=O [Example 191, 3-amino-6-(1-isopropyl-6-oxo-1,6-dihydro-3-pyridazinyl)-5-(2-thienyl)-2-pyrazinecarboxamide] | 238 to 240 °C | 
CC(C)n1nc(-c2nc(C(N)=O)c(N)nc2-c2ccccc2Br)ccc1=O [Example 192, 3-amino-5-(2-bromophenyl)-6-(1-isopropyl-6-oxo-1,6-dihydro-3-pyridazinyl)-2-pyrazinecarboxamide] | 240 to 243 °C | 
COc1ccc(-c2nc(N)c(C(N)=O)nc2-c2ccc(=O)n(C(C)C)n2)cn1 [Example 194, 3-amino-6-(1-isopropyl-6-oxo-1,6-dihydro-3-pyridazinyl)-5-(6-methoxy-3-pyridyl)-2-pyrazinecarboxamide] | 250 to 252 °C | 
CC(C)n1nc(-c2nc(C#N)c(C#N)nc2-c2ccccc2Br)ccc1=O [Example 195, 5-(2-bromophenyl)-6-(1-isopropyl-6-oxo-1,6-dihydro-3-pyridazinyl)-2,3-pyrazinedicarbonitrile] | 159.5 to 161 °C | 
COc1ccc(CNc2nc(-c3ccccc3Br)c(-c3ccc(=O)n(C(C)C)n3)nc2C#N)cc1 [Example 196, 5-(2-bromophenyl)-6-(1-isopropyl-6-oxo-1,6-dihydro-3-pyridazinyl)-3-[(4-methoxybenzyl)amino]-2-pyrazinecarbonitrile] | 76 to 78 °C | 
CC(C)n1nc(-c2nc(N)c(C#N)nc2-c2ccccc2Br)ccc1=O [Example 197, 3-amino-6-(2-bromophenyl)-5-(1-isopropyl-6-oxo-1,6-dihydro-3-pyridazinyl)-2-pyrazinecarbonitrile] | 241 to 243 °C | 
CC(C)n1nc(-c2nc(C(=O)O)c(N)nc2-c2ccccc2Br)ccc1=O [Example 198, 3-amino-5-(2-bromophenyl)-6-(1-isopropyl-6-oxo-1,6-dihydro-3-pyridazinyl)-2-pyrazinecarboxylic acid] | 237 °C (dec.) | 
CC(C)n1nc(-c2ncc(N)nc2-c2ccccc2Br)ccc1=O [Example 199, 6-[5-amino-3-(2-bromophenyl)-2-pyrazinyl]-2-isopropyl-3(2H)-pyridazinone] | 189 to 191 °C | 
